Reference: paper PMC9851200, “Multiparameter phenotypic screening for endogenous TFEB and TFE3 translocation identifies novel chemical series modulating lysosome function” (Autophagy, 2022)

Experiments:
Assay type in all cases: binding
[1] = target: T1, kinases (KINOMEscan panel) (Homo sapiens, UniProt Q15835); details: NEW KINOMEscan
T1 sequence (Q15835 1-563): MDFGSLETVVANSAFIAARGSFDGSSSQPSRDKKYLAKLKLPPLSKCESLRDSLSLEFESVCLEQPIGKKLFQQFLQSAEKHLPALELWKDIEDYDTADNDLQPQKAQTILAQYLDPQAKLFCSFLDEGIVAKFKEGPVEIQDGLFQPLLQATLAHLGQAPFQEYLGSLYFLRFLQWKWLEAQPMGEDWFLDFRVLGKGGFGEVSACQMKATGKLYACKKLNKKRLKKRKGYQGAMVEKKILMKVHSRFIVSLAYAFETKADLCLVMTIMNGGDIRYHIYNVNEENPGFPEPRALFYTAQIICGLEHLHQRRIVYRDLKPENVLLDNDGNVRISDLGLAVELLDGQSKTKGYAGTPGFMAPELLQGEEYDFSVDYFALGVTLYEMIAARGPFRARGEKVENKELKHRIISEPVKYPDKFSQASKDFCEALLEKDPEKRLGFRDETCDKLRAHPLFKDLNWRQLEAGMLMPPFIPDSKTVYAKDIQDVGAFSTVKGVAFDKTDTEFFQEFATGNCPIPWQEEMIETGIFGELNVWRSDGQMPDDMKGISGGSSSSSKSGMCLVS

[2] = target: kinases (KINOMEscan panel) (Homo sapiens, UniProt P22455); details: NEW KINOMEscan
[3] = target: kinases (KINOMEscan panel) (Homo sapiens, UniProt Q13523); details: PRPF4B; NEW KINOMEscan
kinases (KINOMEscan panel) (Homo sapiens, UniProt Q13523), sequence (Q13523 whole entry): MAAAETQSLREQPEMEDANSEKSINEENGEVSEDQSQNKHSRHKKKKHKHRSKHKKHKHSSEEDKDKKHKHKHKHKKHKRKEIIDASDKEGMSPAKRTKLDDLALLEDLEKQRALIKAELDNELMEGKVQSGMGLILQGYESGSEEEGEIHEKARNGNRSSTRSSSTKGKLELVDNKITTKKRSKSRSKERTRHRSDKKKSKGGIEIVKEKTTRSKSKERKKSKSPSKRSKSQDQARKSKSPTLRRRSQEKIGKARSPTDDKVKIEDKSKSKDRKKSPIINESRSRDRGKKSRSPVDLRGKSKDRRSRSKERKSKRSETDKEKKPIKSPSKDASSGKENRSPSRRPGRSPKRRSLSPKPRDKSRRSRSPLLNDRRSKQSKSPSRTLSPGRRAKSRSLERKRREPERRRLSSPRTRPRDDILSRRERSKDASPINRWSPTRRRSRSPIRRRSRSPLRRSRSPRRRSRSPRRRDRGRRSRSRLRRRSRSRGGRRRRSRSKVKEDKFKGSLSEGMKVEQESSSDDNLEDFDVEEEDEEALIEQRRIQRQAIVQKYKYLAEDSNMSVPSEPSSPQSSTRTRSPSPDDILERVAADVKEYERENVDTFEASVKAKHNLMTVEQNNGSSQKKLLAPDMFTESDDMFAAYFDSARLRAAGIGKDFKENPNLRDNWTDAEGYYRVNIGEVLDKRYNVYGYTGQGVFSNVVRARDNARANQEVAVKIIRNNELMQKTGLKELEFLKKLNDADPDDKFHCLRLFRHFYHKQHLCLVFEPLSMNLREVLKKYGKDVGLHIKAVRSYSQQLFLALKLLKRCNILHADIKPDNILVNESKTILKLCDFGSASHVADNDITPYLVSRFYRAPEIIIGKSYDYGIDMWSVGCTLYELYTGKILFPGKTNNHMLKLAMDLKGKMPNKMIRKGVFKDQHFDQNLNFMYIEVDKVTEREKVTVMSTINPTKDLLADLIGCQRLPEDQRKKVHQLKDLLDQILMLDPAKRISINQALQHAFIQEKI

[4] = target: kinases (KINOMEscan panel) (Homo sapiens, UniProt Q13554); details: kinase CAMK2B; NEW KINOMEscan
kinases (KINOMEscan panel) (Homo sapiens, UniProt Q13554), sequence (Q13554 whole entry): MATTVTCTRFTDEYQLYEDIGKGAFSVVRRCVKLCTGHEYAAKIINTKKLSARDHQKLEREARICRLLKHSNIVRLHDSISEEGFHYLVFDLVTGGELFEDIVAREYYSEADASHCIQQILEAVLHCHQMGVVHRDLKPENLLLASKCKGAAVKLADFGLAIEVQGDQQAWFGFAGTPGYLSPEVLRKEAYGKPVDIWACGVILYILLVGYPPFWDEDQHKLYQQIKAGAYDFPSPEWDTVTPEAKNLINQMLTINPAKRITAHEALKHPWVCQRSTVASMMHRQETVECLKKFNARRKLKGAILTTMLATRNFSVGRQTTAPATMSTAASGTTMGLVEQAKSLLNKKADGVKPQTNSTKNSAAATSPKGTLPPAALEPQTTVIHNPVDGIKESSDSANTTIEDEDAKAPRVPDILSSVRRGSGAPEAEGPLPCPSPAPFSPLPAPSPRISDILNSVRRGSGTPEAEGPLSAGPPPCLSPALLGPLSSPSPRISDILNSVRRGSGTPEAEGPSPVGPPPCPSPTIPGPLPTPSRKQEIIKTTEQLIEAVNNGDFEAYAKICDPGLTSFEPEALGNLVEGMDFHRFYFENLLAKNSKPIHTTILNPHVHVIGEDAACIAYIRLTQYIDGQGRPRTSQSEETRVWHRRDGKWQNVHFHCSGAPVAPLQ

[5] = target: kinases (KINOMEscan panel) (Homo sapiens, UniProt P21127); details: CDK11B; NEW KINOMEscan
kinases (KINOMEscan panel) (Homo sapiens, UniProt P21127), sequence (P21127 whole entry): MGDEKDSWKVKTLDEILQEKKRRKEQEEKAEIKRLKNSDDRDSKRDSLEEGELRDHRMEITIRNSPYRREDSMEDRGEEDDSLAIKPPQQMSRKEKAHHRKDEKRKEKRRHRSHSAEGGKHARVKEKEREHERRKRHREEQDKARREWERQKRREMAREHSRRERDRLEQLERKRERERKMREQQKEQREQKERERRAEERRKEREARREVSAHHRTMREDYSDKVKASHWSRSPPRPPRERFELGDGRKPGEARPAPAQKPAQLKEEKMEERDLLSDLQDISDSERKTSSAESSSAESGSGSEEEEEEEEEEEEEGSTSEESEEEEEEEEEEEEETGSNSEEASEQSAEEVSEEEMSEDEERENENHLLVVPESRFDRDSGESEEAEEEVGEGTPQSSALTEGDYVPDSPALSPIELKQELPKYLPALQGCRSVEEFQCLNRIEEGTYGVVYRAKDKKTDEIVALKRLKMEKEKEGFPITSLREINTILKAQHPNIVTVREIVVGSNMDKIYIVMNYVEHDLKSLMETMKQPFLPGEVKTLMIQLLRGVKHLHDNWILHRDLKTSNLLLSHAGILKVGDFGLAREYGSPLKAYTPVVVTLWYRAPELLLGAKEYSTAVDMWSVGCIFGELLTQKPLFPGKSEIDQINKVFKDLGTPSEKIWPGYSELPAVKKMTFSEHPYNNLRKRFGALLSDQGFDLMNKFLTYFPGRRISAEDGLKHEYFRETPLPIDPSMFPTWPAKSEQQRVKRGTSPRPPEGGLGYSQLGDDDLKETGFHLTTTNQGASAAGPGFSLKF

[6] = target: kinases (KINOMEscan panel) (Homo sapiens, UniProt P53671); details: LIMK2; NEW KINOMEscan
[7] = target: kinases (KINOMEscan panel) (Homo sapiens, UniProt P57059); details: kinase SIK1; NEW KINOMEscan
kinases (KINOMEscan panel) (Homo sapiens, UniProt P57059), sequence (P57059 whole entry): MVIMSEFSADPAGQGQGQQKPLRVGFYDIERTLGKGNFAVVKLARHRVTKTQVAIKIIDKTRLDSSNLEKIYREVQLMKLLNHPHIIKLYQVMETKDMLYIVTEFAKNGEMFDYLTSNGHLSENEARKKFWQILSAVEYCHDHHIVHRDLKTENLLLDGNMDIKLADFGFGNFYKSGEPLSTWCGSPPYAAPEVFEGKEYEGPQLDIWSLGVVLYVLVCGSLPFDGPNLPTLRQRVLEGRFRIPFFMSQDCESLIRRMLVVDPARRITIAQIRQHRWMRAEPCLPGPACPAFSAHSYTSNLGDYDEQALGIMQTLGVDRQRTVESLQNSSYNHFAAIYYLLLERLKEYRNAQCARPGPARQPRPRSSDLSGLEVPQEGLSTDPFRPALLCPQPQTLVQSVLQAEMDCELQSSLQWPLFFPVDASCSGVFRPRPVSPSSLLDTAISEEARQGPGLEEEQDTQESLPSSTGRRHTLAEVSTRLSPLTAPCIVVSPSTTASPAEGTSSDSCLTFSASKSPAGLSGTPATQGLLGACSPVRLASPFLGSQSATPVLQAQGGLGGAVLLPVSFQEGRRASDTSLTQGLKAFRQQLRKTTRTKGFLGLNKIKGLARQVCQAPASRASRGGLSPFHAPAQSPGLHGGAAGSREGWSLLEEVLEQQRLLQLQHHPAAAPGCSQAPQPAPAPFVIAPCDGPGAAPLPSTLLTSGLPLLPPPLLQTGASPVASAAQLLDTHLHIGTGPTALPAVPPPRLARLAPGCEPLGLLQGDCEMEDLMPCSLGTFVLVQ

[8] = target: kinases (KINOMEscan panel) (Homo sapiens, UniProt Q9H2X6); details: NEW KINOMEscan
kinases (KINOMEscan panel) (Homo sapiens, UniProt Q9H2X6), sequence (Q9H2X6 whole entry): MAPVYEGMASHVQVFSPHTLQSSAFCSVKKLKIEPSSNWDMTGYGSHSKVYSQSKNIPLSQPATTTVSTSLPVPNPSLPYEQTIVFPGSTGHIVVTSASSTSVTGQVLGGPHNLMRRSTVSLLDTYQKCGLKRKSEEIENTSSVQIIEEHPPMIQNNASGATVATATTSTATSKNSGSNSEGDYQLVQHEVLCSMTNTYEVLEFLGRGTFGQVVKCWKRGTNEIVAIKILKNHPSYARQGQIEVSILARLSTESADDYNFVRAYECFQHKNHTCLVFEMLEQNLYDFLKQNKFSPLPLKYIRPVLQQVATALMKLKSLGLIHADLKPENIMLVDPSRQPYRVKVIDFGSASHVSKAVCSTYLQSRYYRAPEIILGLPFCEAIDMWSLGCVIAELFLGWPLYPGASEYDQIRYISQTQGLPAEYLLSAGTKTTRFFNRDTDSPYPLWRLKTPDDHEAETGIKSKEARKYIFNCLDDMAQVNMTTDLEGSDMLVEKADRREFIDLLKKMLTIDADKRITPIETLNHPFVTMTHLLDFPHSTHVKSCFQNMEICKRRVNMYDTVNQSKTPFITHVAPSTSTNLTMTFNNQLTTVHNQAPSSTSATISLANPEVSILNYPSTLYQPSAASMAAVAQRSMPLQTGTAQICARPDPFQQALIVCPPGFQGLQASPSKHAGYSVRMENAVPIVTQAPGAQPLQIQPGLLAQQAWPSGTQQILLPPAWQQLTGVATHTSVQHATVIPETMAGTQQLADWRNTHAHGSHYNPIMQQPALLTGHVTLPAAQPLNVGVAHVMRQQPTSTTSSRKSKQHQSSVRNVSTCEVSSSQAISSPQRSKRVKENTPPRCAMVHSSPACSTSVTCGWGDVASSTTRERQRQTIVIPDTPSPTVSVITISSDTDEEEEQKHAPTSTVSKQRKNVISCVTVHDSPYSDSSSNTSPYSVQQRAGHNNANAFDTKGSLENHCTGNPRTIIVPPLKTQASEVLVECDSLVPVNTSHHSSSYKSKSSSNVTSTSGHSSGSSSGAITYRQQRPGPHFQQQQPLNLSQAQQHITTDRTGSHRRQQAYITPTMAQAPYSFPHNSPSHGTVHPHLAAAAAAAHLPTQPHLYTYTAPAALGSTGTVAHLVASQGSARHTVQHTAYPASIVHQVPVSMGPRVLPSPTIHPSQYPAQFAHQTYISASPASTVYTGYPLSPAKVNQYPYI

[9] = target: T2, kinases (KINOMEscan panel) (Homo sapiens, UniProt Q9UKI8); details: kinase TLK1; NEW KINOMEscan
T2 sequence (Q9UKI8 1-766): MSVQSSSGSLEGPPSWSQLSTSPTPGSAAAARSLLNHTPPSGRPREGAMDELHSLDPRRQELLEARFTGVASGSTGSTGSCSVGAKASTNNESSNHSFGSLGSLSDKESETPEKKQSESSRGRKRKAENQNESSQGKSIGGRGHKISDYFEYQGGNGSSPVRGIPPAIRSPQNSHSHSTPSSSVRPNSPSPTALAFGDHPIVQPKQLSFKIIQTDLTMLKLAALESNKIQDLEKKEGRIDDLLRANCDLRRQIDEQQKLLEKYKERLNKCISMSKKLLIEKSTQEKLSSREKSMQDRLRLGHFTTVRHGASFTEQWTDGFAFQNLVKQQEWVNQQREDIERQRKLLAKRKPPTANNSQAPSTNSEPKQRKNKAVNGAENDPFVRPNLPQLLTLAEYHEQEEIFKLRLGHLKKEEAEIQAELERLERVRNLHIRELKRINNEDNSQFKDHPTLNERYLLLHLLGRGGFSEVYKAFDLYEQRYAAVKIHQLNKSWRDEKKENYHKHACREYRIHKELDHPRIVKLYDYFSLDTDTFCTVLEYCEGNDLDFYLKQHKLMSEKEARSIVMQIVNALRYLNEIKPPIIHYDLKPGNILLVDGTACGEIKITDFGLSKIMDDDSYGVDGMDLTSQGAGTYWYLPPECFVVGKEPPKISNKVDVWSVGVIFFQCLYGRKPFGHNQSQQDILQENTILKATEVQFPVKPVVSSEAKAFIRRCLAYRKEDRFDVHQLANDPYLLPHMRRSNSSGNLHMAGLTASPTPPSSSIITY

[10] = target: kinases (KINOMEscan panel) (Homo sapiens, UniProt P50750); details: kinase CDK9; NEW KINOMEscan
kinases (KINOMEscan panel) (Homo sapiens, UniProt P50750), sequence (P50750 whole entry): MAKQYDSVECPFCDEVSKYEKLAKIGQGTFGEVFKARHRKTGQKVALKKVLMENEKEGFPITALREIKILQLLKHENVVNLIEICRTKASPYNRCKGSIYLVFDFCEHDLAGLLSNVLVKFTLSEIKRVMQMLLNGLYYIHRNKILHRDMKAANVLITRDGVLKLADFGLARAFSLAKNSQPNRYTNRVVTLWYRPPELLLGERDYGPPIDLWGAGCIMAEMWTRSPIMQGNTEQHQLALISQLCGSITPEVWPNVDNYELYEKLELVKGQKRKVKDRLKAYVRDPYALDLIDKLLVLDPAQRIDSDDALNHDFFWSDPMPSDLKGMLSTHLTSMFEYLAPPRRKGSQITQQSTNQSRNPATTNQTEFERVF

[11] = target: T3, kinases (KINOMEscan panel) (Homo sapiens, UniProt P43403); details: NEW KINOMEscan
T3 sequence (P43403 1-619): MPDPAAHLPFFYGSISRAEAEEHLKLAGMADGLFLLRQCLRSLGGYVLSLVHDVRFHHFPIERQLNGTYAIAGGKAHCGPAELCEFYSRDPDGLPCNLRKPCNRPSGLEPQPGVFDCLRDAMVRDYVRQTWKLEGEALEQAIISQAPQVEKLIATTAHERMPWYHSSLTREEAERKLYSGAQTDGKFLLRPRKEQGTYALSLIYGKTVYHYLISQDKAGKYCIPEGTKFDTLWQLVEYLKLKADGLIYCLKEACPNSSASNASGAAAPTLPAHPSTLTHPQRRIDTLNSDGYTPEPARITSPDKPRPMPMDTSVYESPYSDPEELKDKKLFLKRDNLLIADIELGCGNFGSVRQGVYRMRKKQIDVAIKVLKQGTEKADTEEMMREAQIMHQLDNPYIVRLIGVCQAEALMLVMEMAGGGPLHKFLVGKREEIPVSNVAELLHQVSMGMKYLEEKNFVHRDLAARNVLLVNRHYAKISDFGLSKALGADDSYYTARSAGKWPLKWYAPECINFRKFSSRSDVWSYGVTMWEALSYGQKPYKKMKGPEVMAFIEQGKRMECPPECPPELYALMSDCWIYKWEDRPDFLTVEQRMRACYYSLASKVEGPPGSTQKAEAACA

SMILES: Cc1cccc(-c2nc(Nc3ccc4nn(C)cc4c3)c3ccccc3n2)n1 [NK167]
- KINOMEscan GRK1 [1]: 37
- KINOMEscan FGFR4 [2]: 16
- KINOMEscan PRPF4B [3]: 0
- KINOMEscan CAMK2B [4]: 0
- KINOMEscan CDK11B [5]: 10
- KINOMEscan LIMK2 [6]: 3
- KINOMEscan SIK1 [7]: 1
- KINOMEscan HIPK2 [8]: 33
- KINOMEscan TLK1 [9]: 0
- KINOMEscan CDK9 [10]: 8
- KINOMEscan ZAP70 [11]: 14

SMILES: Cc1cccc(-c2nc(N(C)c3ccc4ncsc4c3)c3ccccc3n2)n1 [NK-161]
- KINOMEscan GRK1 [1]: 25
- KINOMEscan FGFR4 [2]: 19
- KINOMEscan PRPF4B [3]: 0
- KINOMEscan CAMK2B [4]: 0
- KINOMEscan CDK11B [5]: 1
- KINOMEscan LIMK2 [6]: 9
- KINOMEscan SIK1 [7]: 12
- KINOMEscan HIPK2 [8]: 28
- KINOMEscan TLK1 [9]: 0
- KINOMEscan CDK9 [10]: 4
- KINOMEscan ZAP70 [11]: 20
